ChEMBL document CHEMBL3244338, “Antineoplastic agents. Structure-activity relationship study of bis(substituted aminoalkylamino)anthraquinones” (J Med Chem, 1978)
The source made the active and inactive calls. The rule behind the calls is not given here.

Columns and labels:
P388 [1] = test: Antitumor activity against mouse P388 cells allografted in BDF1 mouse assessed as mouse survival at 0.12 mg/kg administered 24 hrs post challenge relative to control; format: functional, organism-based; set-up: dose 0.12 mg/kg
P388 [2] = test: Antitumor activity against mouse P388 cells allografted in BDF1 mouse assessed as increase in survival time at 0.25 mg/kg administered 24 hrs post challenge relative to control; format: functional
P388 [3] = test: Antitumor activity against mouse P388 cells allografted in BDF1 mouse assessed as mouse survival at 0.25 mg/kg administered 24 hrs post challenge relative to control; format: functional, organism-based; set-up: dose 0.25 mg/kg
P388 [4] = test: Antitumor activity against mouse P388 cells allografted in BDF1 mouse assessed as increase in survival time at 0.5 mg/kg administered 24 hrs post challenge relative to control; format: functional
P388 [5] = test: Antitumor activity against mouse P388 cells allografted in BDF1 mouse assessed as increase in survival time at 2 mg/kg administered 24 hrs post challenge relative to control; format: functional
B16 [6] = test: Antitumor activity against mouse B16 cells allografted in BDF1 mouse assessed as increase in survival time at 0.5 mg/kg administered 24 hrs post challenge relative to control; format: functional
Mus musculus [7] = test: Toxicity in mouse P388 cells allografted BDF1 mouse assessed as body weight difference at 0.25 mg/kg administered 24 hrs post challenge relative to control; format: organism-based; set-up: dose 0.25 mg/kg; settings: in vivo
Mus musculus [8] = test: Toxicity in mouse P388 cells allografted BDF1 mouse assessed as body weight difference at 2 mg/kg administered 24 hrs post challenge relative to control; format: organism-based; set-up: dose 2 mg/kg; settings: in vivo
Mus musculus [9] = test: Toxicity in mouse P388 cells allografted BDF1 mouse assessed as body weight difference at 0.5 mg/kg administered 24 hrs post challenge relative to control; format: organism-based; set-up: dose 0.5 mg/kg; settings: in vivo
Mus musculus [10] = test: Toxicity in mouse P388 cells allografted BDF1 mouse assessed as body weight difference at 0.12 mg/kg administered 24 hrs post challenge relative to control; format: organism-based; set-up: dose 0.12 mg/kg; settings: in vivo
Mus musculus [11] = test: Toxicity in mouse P388 cells allografted BDF1 mouse assessed as body weight difference at 0.06 mg/kg administered 24 hrs post challenge relative to control; format: organism-based; set-up: dose 0.06 mg/kg; settings: in vivo
P388 [12] = test: Antitumor activity against mouse P388 cells allografted in BDF1 mouse assessed as mouse survival at 0.5 mg/kg administered 24 hrs post challenge relative to control; format: functional, organism-based; set-up: dose 0.5 mg/kg
P388 [13] = test: Antitumor activity against mouse P388 cells allografted in BDF1 mouse assessed as increase in survival time at 0.06 mg/kg administered 24 hrs post challenge relative to control; format: functional
B16 [14] = test: Antitumor activity against mouse B16 cells allografted in BDF1 mouse assessed as increase in survival time at 1 mg/kg administered 24 hrs post challenge relative to control; format: functional
P388 [15] = test: Antitumor activity against mouse P388 cells allografted in BDF1 mouse assessed as increase in survival time at 1 mg/kg administered 24 hrs post challenge relative to control; format: functional
P388 [16] = test: Antitumor activity against mouse P388 cells allografted in BDF1 mouse assessed as increase in survival time at 0.12 mg/kg administered 24 hrs post challenge relative to control; format: functional
P388 [17] = test: Antitumor activity against mouse P388 cells allografted in BDF1 mouse assessed as mouse survival at 0.06 mg/kg administered 24 hrs post challenge relative to control; format: functional, organism-based; set-up: dose 0.06 mg/kg
P388 [18] = test: Antitumor activity against mouse P388 cells allografted in BDF1 mouse assessed as mouse survival at 2 mg/kg administered 24 hrs post challenge relative to control; format: functional, organism-based; set-up: dose 2 mg/kg
Mus musculus [19] = test: Toxicity in mouse P388 cells allografted BDF1 mouse assessed as body weight difference at 1 mg/kg administered 24 hrs post challenge relative to control; format: organism-based; set-up: dose 1 mg/kg; settings: in vivo

Question: What does the source list for `O=C1c2c(O)ccc(O)c2C(=O)c2c(NCCNCCO)ccc(NCCNCCO)c21` [MITOXANTRONE]?
Answer: Activity (P388 [1]): Active; T/C (P388 [2]): 280%; Activity (P388 [3]): Active; T/C (P388 [4]): 299%; T/C (P388 [5]): 280%; T/C (B16 [6]): 466%; Activity (Mus musculus [7]): -2.3 g; Activity (Mus musculus [8]): -0.6 g; Activity (Mus musculus [9]): -2 g; Activity (Mus musculus [10]): -1.4 g; Activity (Mus musculus [11]): -1.7 g; Activity (P388 [12]): Active; T/C (P388 [13]): 208%; T/C (B16 [14]): 503%; T/C (P388 [15]): 277%; T/C (P388 [16]): 200%; Activity (P388 [17]): Active; Activity (P388 [18]): Active; Activity (Mus musculus [19]): -0.6 g
